Laboratory results reported in publication PMC10179505, “Rivastigmine–Benzimidazole Hybrids as Promising Multitarget Metal-Modulating Compounds for Potential Treatment of Neurodegenerative Diseases” (International Journal of Molecular Sciences, 2023).
Read-outs that look alike come from different tables or passages of the source.

What was measured:
SH-SY5Y cells = assay type: cell-based, human; settings: for protection on MPP+-induced toxicity (cell viability, MTT): 1 µM compound, 1 h pre-incubation, then 0.5 mM MPP+ for 24 h
Method: SH-SY5Y human neuroblastoma cells were kept in culture under a humidified atmosphere of 5% CO2 at 37 °C in Dulbecco’s Modified Eagle Medium/Nutrient Mixture F-12 (DMEM/F-12) (Gibco, Thermo Fisher Scientific) supplemented with 10% heat-inactivated fetal bovine serum (FBS), 50 U/mL penicillin, and 50 μg/mL streptomycin. Cells were plated at a density of 1 × 10^5 cells/mL and pre-incubated for 1 h with the compounds by adding them to the medium at the following final concentrations: 1 µM for compounds 4a, 4b, and 5b; 2 µM for compounds 4c and 5a; and 3 µM for compound 4d. Then the cells were incubated for 24 h with MPP^+ (1-methyl-4-phenylpyridinium, Sigma-Aldrich) (1 h pre-incubation + 24 h incubation) at the final concentration of 0.5 mM. MPP^+ was freshly prepared in sterile water on the day of the experiment. The compounds were dissolved in DMSO, aliquoted, and stored at −20 °C; their toxicity was previously studied through cell viability assays to select the highest non-toxic concentration of each compound.
Cell viability was measured by the colorimetric MTT (3-(4,5-dimethylthiazol-2-yl)-2,5-diphenyltetrazolium bromide) reduction assay, which follows the principle that viable cells can metabolize MTT into formazan that absorbs light at 570 nm. After the cell treatments with the compounds and MPP^+, the culture medium was removed, 150 µL of MTT (0.5 mg/mL dissolved in sodium medium) was added to each well, and the 48-well plate was incubated at 37 °C for 2 h. The formazan precipitates were then solubilized with 150 µL of 0.04 M HCl/isopropanol. The absorbance was read at 570 nm using a spectrophotometer (Spectramax Plus 384), and cell viability results were normalized to untreated SH-SY5Y cells, with the means ± SEMs derived from six different experiments performed in duplicate (N = 6). Statistical analyses were performed on GraphPad Prism 8 (GraphPad Software, San Diego, CA, USA) using one-way analysis of variance (ANOVA) followed by Tukey’s post hoc test or using Student’s t-test to determine statistical significance.

hMAO-B = target: T1, hMAO-B (Homo sapiens, UniProt P27338); experiment: hMAO-B inhibition (kynuramine to 4-hydroxyquinoline, microsomal recombinant enzyme); assay type: biochemical
T1 construct: purchased Sigma-Aldrich Quimica S.A., Madrid, Spain; host or cells: insect cells (BTI-TN-5B1-4) infected with recombinant baculovirus
T1 sequence (P27338 1-520): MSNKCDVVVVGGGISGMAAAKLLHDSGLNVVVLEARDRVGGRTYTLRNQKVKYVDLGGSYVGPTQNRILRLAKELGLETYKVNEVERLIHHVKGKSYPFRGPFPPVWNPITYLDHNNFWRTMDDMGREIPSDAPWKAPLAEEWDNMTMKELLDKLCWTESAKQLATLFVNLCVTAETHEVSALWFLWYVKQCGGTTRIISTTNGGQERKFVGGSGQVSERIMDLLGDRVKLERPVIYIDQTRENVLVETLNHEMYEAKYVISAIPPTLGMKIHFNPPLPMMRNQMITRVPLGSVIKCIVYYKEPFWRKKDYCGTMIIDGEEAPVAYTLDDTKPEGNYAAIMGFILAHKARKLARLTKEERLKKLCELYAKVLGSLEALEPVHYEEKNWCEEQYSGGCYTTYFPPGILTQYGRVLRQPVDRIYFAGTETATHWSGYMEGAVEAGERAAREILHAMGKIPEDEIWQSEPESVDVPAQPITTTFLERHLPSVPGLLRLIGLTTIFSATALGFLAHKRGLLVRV
Method: (§1) The inhibitory activity of the rivastigmine hybrids (RIV–BIM) on hMAO-A and hMAO-B was studied using an experimental protocol described elsewhere with some modifications. The outlined hMAO inhibition was assessed in microsomal MAO isoforms prepared from insect cells (BTI-TN-5B1-4) infected with recombinant baculovirus containing cDNA inserts for hMAO-A or hMAO-B (Sigma-Aldrich Quimica S.A., Madrid, Spain) and by measuring the enzymatic conversion rates of kynuramine into 4-hydroxyquinoline. […] All assays were performed under sodium phosphate-buffered conditions (50 mM, pH = 7.4). […] Then, the reaction was started with the addition of hMAO-A or hMAO-B. Initial velocities were determined spectrophotometrically in a microplate reader (Biotek Synergy HT, Winooski, VT, USA) at 37 °C by measuring the formation of 4-hydroxyquinoline at 316 nm, over a period of at least 30 min (interval of 1 min). Data were analyzed using GraphPad PRISM version 6 for Windows (GraphPad Software®, San Diego, CA, USA). The initial velocities, obtained from the linear phase of product formation, were normalized and plotted against the respective inhibitor concentration. IC50 values were obtained from dose–response curves and were expressed as the mean ± standard deviation. IC50 values were determined from at least three independent experiments, each performed in triplicate.

Aβ42 [1] = settings: cited from earlier work
Aβ42 [2] = settings: cited from earlier work; remark: listed apart in the source
hMAO-A = target: T2, hMAO-A (Homo sapiens, UniProt P21397); experiment: hMAO-A inhibition (kynuramine to 4-hydroxyquinoline, microsomal recombinant enzyme); assay type: biochemical; settings: for hMAO isoform selectivity: hMAO-A vs hMAO-B; for inhibition at 10 µM: read-out: % Inhibition (at 10 µM) hMAO-A
T2 construct: purchased Sigma-Aldrich Quimica S.A., Madrid, Spain; host or cells: insect cells (BTI-TN-5B1-4) infected with recombinant baculovirus
T2 sequence (P21397 1-527): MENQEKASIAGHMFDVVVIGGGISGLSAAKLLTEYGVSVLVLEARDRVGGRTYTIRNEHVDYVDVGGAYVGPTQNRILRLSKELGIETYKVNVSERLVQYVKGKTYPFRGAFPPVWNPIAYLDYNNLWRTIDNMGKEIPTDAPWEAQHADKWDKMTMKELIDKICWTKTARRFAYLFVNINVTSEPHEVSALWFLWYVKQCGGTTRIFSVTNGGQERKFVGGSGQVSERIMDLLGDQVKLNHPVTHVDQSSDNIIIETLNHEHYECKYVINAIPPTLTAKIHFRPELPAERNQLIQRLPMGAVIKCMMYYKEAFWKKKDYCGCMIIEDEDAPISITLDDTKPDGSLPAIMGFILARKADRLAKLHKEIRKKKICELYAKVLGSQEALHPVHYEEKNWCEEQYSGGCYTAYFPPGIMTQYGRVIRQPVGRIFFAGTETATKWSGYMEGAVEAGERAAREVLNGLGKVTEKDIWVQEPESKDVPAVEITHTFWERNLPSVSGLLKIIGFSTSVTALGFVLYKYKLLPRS
Method: as §1

[3] = Fe(III) complexation by spectrophotometric titration; assay type: physicochemical; settings: for log βFemHhLl, global formation constant, species (102): FeL2 (102); for log βFemHhLl, global formation constant, species (102) / log βFemHhLl, global formation constant, species (103) / log βFemHhLl, global formation constant, species (101): T = 25.0 ± 0.1 °C, I = 0.1 M KCl, 50% w/w DMSO/water; for log βFemHhLl, global formation constant, species (103): FeL3 (103); for log βFemHhLl, global formation constant, species (101): FeL (101); for pM (pFe): pM = −log[M] at pH 7.4, CL/CM = 10, CM = 10^−6 M
Method: (§2) The metal complexation studies were performed by spectrophotometric titration, in the same 50% w/w DMSO/water medium used for both ligands alone, with fitting analysis of the UV-Vis spectra by Psequad. The calculated metal-chelating equilibrium models, included in Table 1, show good chelating capacity towards Cu(II) (pCu~10.3–13.6) and Fe(III) (pFe~16.8–17.4), involving complex species with a 1:1 to 1:2 or 1:1 to 1:3 M/L ratio, respectively. Metal coordination is expected to occur primarily through the phenolic oxygen and the imidazole nitrogen N(3) of the BIM moiety.
(§3) The two positional isomeric hybrids 4c and 5a were titrated, alone or in the presence of the metal ions, in a 50% w/w DMSO/H2O medium, at T = 25.0 ± 0.1 °C and ionic strength of (I) 0.1 M KCl, by using a 0.1 M KOH (50% w/w DMSO/H2O) titrant solution. The glass and Ag/AgCl reference electrodes were previously conditioned in different DMSO/H2O mixtures of increasing DMSO % compositions, and the response of the glass electrode was evaluated by strong acid–strong base (HCl/KOH) calibrations with the determination of the Nernst parameters by Gran’s method. […] The spectrophotometric measurements were carried out in a 250–450 nm (L, Cu/L systems) or 250–650 nm (L, Fe/L systems) wavelength range at pH ca 2.5–8.0. Under these specified experimental conditions, the pKw value (14.95) was determined and subsequently used in the calculations. The stepwise protonation constants of the ligands, Ki = [HiL]/[Hi−1L][H], and the overall metal–complex stability constants, βMmHhLl = [MmHhLl]/[M]^m[H]^h[L]^l, were calculated by fitting the spectrophotometric data with the Psequad program. The metal hydrolysis model was determined under the established experimental conditions (I = 0.1 M KCl, 50% w/w DMSO/H2O, T = 25.0 ± 0.1 °C) and the following values of stability constants were included in the equilibrium models related to the Fe(III)/L and Cu(II)/L systems: log βFeH−1 = −4.07, log βFeH−3 = −11.42; log βCu2H−2 = −9.99. The species distribution curves were obtained with the Hyss program.

[4] = Cu(II) complexation by spectrophotometric titration; assay type: physicochemical; settings: for logβCumHhLl, global formation constant, species (1–11): CuH−1L (1–11); for logβCumHhLl, global formation constant, species (1–11) / logβCumHhLl, global formation constant, species (102) / logβCumHhLl, global formation constant, species (101): T = 25.0 ± 0.1 °C, I = 0.1 M KCl, 50% w/w DMSO/water; for logβCumHhLl, global formation constant, species (102): CuL2 (102); for logβCumHhLl, global formation constant, species (101): CuL (101); for Kd: calculated at pH 7.4, read-out: conditional dissociation constant (K’d) for the copper complex; for pM (pCu): pM = −log[M] at pH 7.4, CL/CM = 10, CM = 10^−6 M
Method: as §2, §3

[5] = Protonation constants by spectrophotometric titration (Psequad fitting); assay type: physicochemical; settings: pH 7.4, CL = 1 × 10^−5 M
Method: To formulate the model for the metal chelation mechanism of compounds 4c and 5a, their protonation constants were first determined by spectrophotometric titrations in a 50% (w/w) DMSO/H2O medium by fitting the experimental data with the program Psequad. This working medium was adopted to perform all the equilibrium studies due to certain solubility problems of the compounds. Since the concentration of the compound used in cell studies is low (<7 μM), the final corresponding concentration of DMSO in culture media would be much lower (<1%) and also is not expected to induce modifications of biological tissues.
The two positional isomeric hybrids 4c and 5a were titrated, alone or in the presence of the metal ions, in a 50% w/w DMSO/H2O medium, at T = 25.0 ± 0.1 °C and ionic strength of (I) 0.1 M KCl, by using a 0.1 M KOH (50% w/w DMSO/H2O) titrant solution. The glass and Ag/AgCl reference electrodes were previously conditioned in different DMSO/H2O mixtures of increasing DMSO % compositions, and the response of the glass electrode was evaluated by strong acid–strong base (HCl/KOH) calibrations with the determination of the Nernst parameters by Gran’s method. […] Under these specified experimental conditions, the pKw value (14.95) was determined and subsequently used in the calculations. […]

[6] = absence of copper, 20 µM inhibitor, thioflavin-T fluorescence
[7] = presence of copper (40 µM), 20 µM inhibitor, thioflavin-T fluorescence

Compound	inhibition at 10 µM (hMAO-B) [%]	Aβ42 Self- Aggreg. Inhib. (Aβ42 [1]; [6]) [%]	Aβ42 Cu-ind. Aggreg. Inhib. (Aβ42 [2]; [7]) [%]	IC50 (hMAO-A) [nM]	hMAO isoform selectivity (hMAO-A)	inhibition at 10 µM (hMAO-A) [%]	also measured
CCN(C)C(=O)Oc1cccc(NC(=O)c2ccc3[nH]c(-c4ccccc4O)nc3c2)c1 [4a]	28	39.0	41.2	740 ± 70	selective for isoform A	–	protection on MPP+-induced toxicity (cell viability, MTT) (SH-SY5Y cells): significant protection
CCN(C)C(=O)Oc1cccc(CNC(=O)c2ccc3[nH]c(-c4ccccc4O)nc3c2)c1 [4b]	43	39.6	48.8	8600 ± 900	selective for isoform A	–	–
CCN(C)C(=O)Oc1cccc(CCNC(=O)c2ccc3[nH]c(-c4ccccc4O)nc3c2)c1 [4c]	33	21.2	22.0	–	–	30	log βFemHhLl, global formation constant, species (102) [3]: 20.35(7); log βFemHhLl, global formation constant, species (103) [3]: 28.40(6); log βFemHhLl, global formation constant, species (101) [3]: 11.57(6); pM (pFe) [3]: 16.8; logβCumHhLl, global formation constant, species (1–11) [4]: 3.40(5); logβCumHhLl, global formation constant, species (102) [4]: 17.16(8); logβCumHhLl, global formation constant, species (101) [4]: 9.09(5); Kd [4]: 32 nM; pM (pCu) [4]: 10.3; predominant neutral species HL [5]: 97.4%
CCN(C)C(=O)Oc1ccc(CCCNC(=O)c2ccc3[nH]c(-c4ccccc4O)nc3c2)cc1 [4d]	43	20.1	21.3	11000 ± 1000	selective for isoform A	–	–
CCN(C)C(=O)Oc1cccc(NC(=O)c2cccc3[nH]c(-c4ccccc4O)nc23)c1 [5a]	31	44.5	45.4	–	–	33	log βFemHhLl, global formation constant, species (102) [3]: 23.82(4); log βFemHhLl, global formation constant, species (103) [3]: 30.20(8); log βFemHhLl, global formation constant, species (101) [3]: 12.53(5); pM (pFe) [3]: 17.4; logβCumHhLl, global formation constant, species (1–11) [4]: 3.82(8); logβCumHhLl, global formation constant, species (102) [4]: 20.43(5); logβCumHhLl, global formation constant, species (101) [4]: 11.30(2); Kd [4]: 0.098 nM; pM (pCu) [4]: 13.6; predominant neutral species HL [5]: 94.9%
CCN(C)C(=O)Oc1cccc(CNC(=O)c2cccc3[nH]c(-c4ccccc4O)nc23)c1 [5b]	34	58.7	60.8	–	–	22	protection on MPP+-induced toxicity (cell viability, MTT) (SH-SY5Y cells): significant protection
COc1cc(/C=C/C(=O)CC(=O)/C=C/c2ccc(O)c(OC)c2)ccc1O [Curcumin, curcumin, reference compound]	–	–	–	–	–	–	Aβ42 Self- Aggreg. Inhib. (Aβ42 [1]): 65.7%; Aβ42 Cu-ind. Aggreg. Inhib. (Aβ42 [2]): 62.7%
C[n+]1ccc(-c2ccccc2)cc1 [MPP^+, 1-methyl-4-phenylpyridinium, reference compound]	–	–	–	–	–	–	decrease in cell viability compared with untreated cells (SH-SY5Y cells; MPP+ 0.5 mM, 24 h, MTT): approximately 30%
C[C@H](NCc1ccc(OCc2cccc(F)c2)cc1)C(N)=O [Safinamide, safinamide, reference compound]	–	–	–	–	–	13	–
